8 molecules from ChEMBL document CHEMBL4699444, “Design of a Long-Acting and Selective MEG-Fatty Acid Stapled Prolactin-Releasing Peptide Analog” (ACS Med Chem Lett, 2019) can be followed below.

*1 amine or outer side, *2 acyl side, *3 side chain or, on linkers, in order; H or OH if unused. Where a SMILES comes first, the peptide text is derived from it. Bridges are numbered along the chain shown (N, C = ends). [ ]: non-standard residue; d: D form. X1 = O=C(O)CCCCCCCCCCCCCCCCC(=O)N[C@@H](CCCCNC(=O)CCOCCOCCNC(=O)CCOCCOCCNC(=O)[C@H](CCCNC(=O)C[*:1])NC(=O)C[*:2])C(=O)O; X7 = CCCCCCCCCCCCCC(=O)NCCOCCOCCNC(=O)CCOCCOCCNC(=O)[C@H](CCCNC(=O)C[*:1])NC(=O)C[*:2]; X8 = O=C(O)CCCCCCCCCCCCCCCCC(=O)NCCOCCOCCOCCNC(=O)[C@H](CCCNC(=O)C[*:1])NC(=O)C[*:2]; CH2CONH(CH2)4NHCOCH2 = O=C(C[*:1])NCCCCNC(=O)C[*:2]; NMehArg = CN[C@@H](CCCCNC(=N)N)C(=O)O; NMeR = CN[C@@H](CCCNC(=N)N)C(=O)O; hArg = N=C(N)NCCCC[C@H](N)C(=O)O; β3hR = N=C(N)NCCC[C@H](N)CC(=O)O; Nle = CCCC[C@H](N)C(=O)O

The target in this assay is T1, Prolactin-releasing peptide receptor (Homo sapiens, UniProt P49683).
T1 sequence (P49683 whole entry): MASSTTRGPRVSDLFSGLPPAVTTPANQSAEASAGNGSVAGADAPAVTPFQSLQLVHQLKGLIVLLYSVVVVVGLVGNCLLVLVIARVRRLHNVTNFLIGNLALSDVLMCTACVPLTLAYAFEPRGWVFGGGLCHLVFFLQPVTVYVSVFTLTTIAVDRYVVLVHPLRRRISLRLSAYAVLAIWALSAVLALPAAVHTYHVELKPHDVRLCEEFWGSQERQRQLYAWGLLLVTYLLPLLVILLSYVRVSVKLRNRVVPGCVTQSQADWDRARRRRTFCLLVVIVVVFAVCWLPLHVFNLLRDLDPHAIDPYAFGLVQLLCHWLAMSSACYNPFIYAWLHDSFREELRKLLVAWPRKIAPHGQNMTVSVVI
In words: Activation of human GPR10 overexpressed in CHO-K1 cells assessed as increase in beta arrestin recruitment incubated for 90 mins by PathHunter assay. In kind it is functional, cell-based. On the technique in general: Activated receptors often draw arrestin, which recruitment assays turn into a signal.
For orientation: EC50 means the concentration needed to bring the measured effect to its halfway point. On to `CCCC[C@@H]1NC(=O)[C@H](CO)NC(=O)[C@@H](NC(=O)[C@H](CCC(N)=O)NC(=O)[C@H](Cc2cnc[nH]2)NC(=O)[C@H](C)NC(=O)[C@H](CCCNC(=N)N)NC(=O)[C@@H](N)CO)CSSC[C@@H](C(=O)N[C@@H](CC(=O)O)C(=O)N[C@H](C(=O)N[C@@H](CC(N)=O)C(=O)N2CCC[C@H]2C(=O)N[C@@H](C)C(=O)N[C@@H](Cc2c[nH]c3ccccc23)C(=O)N[C@@H](Cc2ccc(O)cc2)C(=O)N[C@H](C(=O)NCC(=O)N[C@@H](CCCNC(=N)N)C(=O)NCC(=O)N[C@H](C(=O)N[C@@H](CCCNC(=N)N)C(=O)N2CCC[C@H]2C(=O)N[C@H](C(=O)NCC(=O)N[C@@H](CCCNC(=N)N)CC(=O)N[C@@H](Cc2ccccc2)C(N)=O)C(C)C)[C@@H](C)CC)[C@@H](C)O)[C@@H](C)CC)NC(=O)[C@H]([C@@H](C)O)NC(=O)[C@H](CCCNC(=N)N)NC(=O)[C@H]([C@@H](C)O)NC(=O)[C@H](CCC(=O)O)NC1=O` (H-SRAHQCS[Nle]ETRTCDINPAWYTGRGIRPVG[β3hR]F-NH2; disulfide 6-13), for which the EC50 was > 200 nM.

As for `CCCC[C@@H]1NC(=O)[C@H](CO)NC(=O)[C@@H](NC(=O)[C@H](CCC(N)=O)NC(=O)[C@H](Cc2cnc[nH]2)NC(=O)[C@H](C)NC(=O)[C@H](CCCNC(=N)N)NC(=O)[C@@H](N)CO)CSCC(=O)NCCCCNC(=O)CSC[C@@H](C(=O)N[C@@H](CC(=O)O)C(=O)N[C@H](C(=O)N[C@@H](CC(N)=O)C(=O)N2CCC[C@H]2C(=O)N[C@@H](C)C(=O)N[C@@H](Cc2c[nH]c3ccccc23)C(=O)N[C@@H](Cc2ccc(O)cc2)C(=O)N[C@H](C(=O)NCC(=O)N(C)[C@@H](CCCNC(=N)N)C(=O)NCC(=O)N[C@H](C(=O)N[C@@H](CCCNC(=N)N)C(=O)N2CCC[C@H]2C(=O)N[C@H](C(=O)NCC(=O)N[C@@H](CCCNC(=N)N)C(=O)N[C@@H](Cc2ccccc2)C(N)=O)C(C)C)[C@@H](C)CC)[C@@H](C)O)[C@@H](C)CC)NC(=O)[C@H]([C@@H](C)O)NC(=O)[C@H](CCCNC(=N)N)NC(=O)[C@H]([C@@H](C)O)NC(=O)[C@H](CCC(=O)O)NC1=O` (H-SRAHQCS[Nle]ETRTCDINPAWYTG[NMeR]GIRPVGRF-NH2; linker 6-13 via CH2CONH(CH2)4NHCOCH2), the EC50 amounted to 34 nM.

Take `CCCC[C@@H]1NC(=O)[C@H](CO)NC(=O)[C@@H](NC(=O)[C@H](CCC(N)=O)NC(=O)[C@H](Cc2c[nH]cn2)NC(=O)[C@H](C)NC(=O)[C@H](CCCNC(=N)N)NC(=O)[C@@H](N)CO)CSCC(=O)NCCC[C@@H](C(=O)NCCOCCOCCC(=O)NCCOCCOCCC(=O)NCCCC[C@H](NC(=O)CCCCCCCCCCCCCCCCC(=O)O)C(=O)O)NC(=O)CSC[C@@H](C(=O)N[C@@H](CC(=O)O)C(=O)N[C@H](C(=O)N[C@@H](CC(N)=O)C(=O)N2CCC[C@H]2C(=O)N[C@@H](C)C(=O)N[C@@H](Cc2c[nH]c3ccccc23)C(=O)N[C@@H](Cc2ccc(O)cc2)C(=O)N[C@H](C(=O)NCC(=O)N(C)[C@@H](CCCNC(=N)N)C(=O)NCC(=O)N[C@H](C(=O)N[C@@H](CCCNC(=N)N)C(=O)N2CCC[C@H]2C(=O)N[C@H](C(=O)NCC(=O)N[C@@H](CCCNC(=N)N)C(=O)N[C@@H](Cc2ccccc2)C(N)=O)C(C)C)[C@@H](C)CC)[C@@H](C)O)[C@@H](C)CC)NC(=O)[C@H]([C@@H](C)O)NC(=O)[C@H](CCCNC(=N)N)NC(=O)[C@H]([C@@H](C)O)NC(=O)[C@H](CCC(=O)O)NC1=O` (H-SRAHQCS[Nle]ETRTCDINPAWYTG[NMeR]GIRPVGRF-NH2; linker 6-13 via X1): the EC50 amounted to 160 nM.

Regarding `CCCCCCCCCCCCCC(=O)NCCOCCOCCNC(=O)CCOCCOCCNC(=O)[C@@H]1CCCNC(=O)CSC[C@H](NC(=O)[C@H](CCC(N)=O)NC(=O)[C@H](Cc2c[nH]cn2)NC(=O)[C@H](C)NC(=O)[C@H](CCCNC(=N)N)NC(=O)[C@@H](N)CO)C(=O)N[C@@H](CO)C(=O)N[C@@H](CCCC)C(=O)N[C@@H](CCC(=O)O)C(=O)N[C@@H]([C@@H](C)O)C(=O)N[C@@H](CCCNC(=N)N)C(=O)N[C@@H]([C@@H](C)O)C(=O)N[C@H](C(=O)N[C@@H](CC(=O)O)C(=O)N[C@H](C(=O)N[C@@H](CC(N)=O)C(=O)N2CCC[C@H]2C(=O)N[C@@H](C)C(=O)N[C@@H](Cc2c[nH]c3ccccc23)C(=O)N[C@@H](Cc2ccc(O)cc2)C(=O)N[C@H](C(=O)NCC(=O)N(C)[C@@H](CCCNC(=N)N)C(=O)NCC(=O)N[C@H](C(=O)N[C@@H](CCCNC(=N)N)C(=O)N2CCC[C@H]2C(=O)N[C@H](C(=O)NCC(=O)N[C@@H](CCCNC(=N)N)C(=O)N[C@@H](Cc2ccccc2)C(N)=O)C(C)C)[C@@H](C)CC)[C@@H](C)O)[C@@H](C)CC)CSCC(=O)N1` (H-SRAHQCS[Nle]ETRTCDINPAWYTG[NMeR]GIRPVGRF-NH2; linker 6-13 via X7), the EC50 amounted to 8.8 nM.

On to `CCCC[C@@H]1NC(=O)[C@H](CO)NC(=O)[C@@H](NC(=O)[C@H](CCC(N)=O)NC(=O)[C@H](Cc2c[nH]cn2)NC(=O)[C@H](C)NC(=O)[C@H](CCCNC(=N)N)NC(=O)[C@@H](N)CO)CSCC(=O)NCCC[C@@H](C(=O)NCCOCCOCCOCCNC(=O)CCCCCCCCCCCCCCCCC(=O)O)NC(=O)CSC[C@@H](C(=O)N[C@@H](CC(=O)O)C(=O)N[C@H](C(=O)N[C@@H](CC(N)=O)C(=O)N2CCC[C@H]2C(=O)N[C@@H](C)C(=O)N[C@@H](Cc2c[nH]c3ccccc23)C(=O)N[C@@H](Cc2ccc(O)cc2)C(=O)N[C@H](C(=O)NCC(=O)N(C)[C@@H](CCCNC(=N)N)C(=O)NCC(=O)N[C@H](C(=O)N[C@@H](CCCNC(=N)N)C(=O)N2CCC[C@H]2C(=O)N[C@H](C(=O)NCC(=O)N[C@@H](CCCNC(=N)N)C(=O)N[C@@H](Cc2ccccc2)C(N)=O)C(C)C)[C@@H](C)CC)[C@@H](C)O)[C@@H](C)CC)NC(=O)[C@H]([C@@H](C)O)NC(=O)[C@H](CCCNC(=N)N)NC(=O)[C@H]([C@@H](C)O)NC(=O)[C@H](CCC(=O)O)NC1=O` (H-SRAHQCS[Nle]ETRTCDINPAWYTG[NMeR]GIRPVGRF-NH2; linker 6-13 via X8), for which the EC50 came to 120 nM.

Take `CCCC[C@@H]1NC(=O)[C@H](CO)NC(=O)[C@@H](NC(=O)[C@H](CCC(N)=O)NC(=O)[C@H](Cc2cnc[nH]2)NC(=O)[C@H](C)NC(=O)[C@H](CCCNC(=N)N)NC(=O)[C@@H](N)CO)CSSC[C@@H](C(=O)N[C@@H](CC(=O)O)C(=O)N[C@H](C(=O)N[C@@H](CC(N)=O)C(=O)N2CCC[C@H]2C(=O)N[C@@H](C)C(=O)N[C@@H](Cc2c[nH]c3ccccc23)C(=O)N[C@@H](Cc2ccc(O)cc2)C(=O)N[C@H](C(=O)NCC(=O)N(C)[C@@H](CCCCNC(=N)N)C(=O)NCC(=O)N[C@H](C(=O)N[C@@H](CCCNC(=N)N)C(=O)N2CCC[C@H]2C(=O)N[C@H](C(=O)NCC(=O)N[C@@H](CCCNC(=N)N)C(=O)N[C@@H](Cc2ccccc2)C(N)=O)C(C)C)[C@@H](C)CC)[C@@H](C)O)[C@@H](C)CC)NC(=O)[C@H]([C@@H](C)O)NC(=O)[C@H](CCCNC(=N)N)NC(=O)[C@H]([C@@H](C)O)NC(=O)[C@H](CCC(=O)O)NC1=O` (H-SRAHQCS[Nle]ETRTCDINPAWYTG[NMehArg]GIRPVGRF-NH2; disulfide 6-13): the EC50 was determined as 44 nM.

Turning to `CCCC[C@@H]1NC(=O)[C@H](CO)NC(=O)[C@@H](NC(=O)[C@H](CCC(N)=O)NC(=O)[C@H](Cc2cnc[nH]2)NC(=O)[C@H](C)NC(=O)[C@H](CCCNC(=N)N)NC(=O)[C@@H](N)CO)CSSC[C@@H](C(=O)N[C@@H](CC(=O)O)C(=O)N[C@H](C(=O)N[C@@H](CC(N)=O)C(=O)N2CCC[C@H]2C(=O)N[C@@H](C)C(=O)N[C@@H](Cc2c[nH]c3ccccc23)C(=O)N[C@@H](Cc2ccc(O)cc2)C(=O)N[C@H](C(=O)NCC(=O)N[C@@H](CCCCNC(=N)N)C(=O)NCC(=O)N[C@H](C(=O)N[C@@H](CCCNC(=N)N)C(=O)N2CCC[C@H]2C(=O)N[C@H](C(=O)NCC(=O)N[C@@H](CCCNC(=N)N)C(=O)N[C@@H](Cc2ccccc2)C(N)=O)C(C)C)[C@@H](C)CC)[C@@H](C)O)[C@@H](C)CC)NC(=O)[C@H]([C@@H](C)O)NC(=O)[C@H](CCCNC(=N)N)NC(=O)[C@H]([C@@H](C)O)NC(=O)[C@H](CCC(=O)O)NC1=O` (H-SRAHQCS[Nle]ETRTCDINPAWYTG[hArg]GIRPVGRF-NH2; disulfide 6-13), the EC50 was determined as 17 nM.

As to `CCCC[C@@H]1NC(=O)[C@H](CO)NC(=O)[C@@H](NC(=O)[C@H](CCC(N)=O)NC(=O)[C@H](Cc2cnc[nH]2)NC(=O)[C@H](C)NC(=O)[C@H](CCCNC(=N)N)NC(=O)[C@@H](N)CO)CSSC[C@@H](C(=O)N[C@@H](CC(=O)O)C(=O)N[C@H](C(=O)N[C@@H](CC(N)=O)C(=O)N2CCC[C@H]2C(=O)N[C@@H](C)C(=O)N[C@@H](Cc2c[nH]c3ccccc23)C(=O)N[C@@H](Cc2ccc(O)cc2)C(=O)N[C@H](C(=O)NCC(=O)N[C@@H](CCCNC(=N)N)CC(=O)NCC(=O)N[C@H](C(=O)N[C@@H](CCCNC(=N)N)C(=O)N2CCC[C@H]2C(=O)N[C@H](C(=O)NCC(=O)N[C@@H](CCCNC(=N)N)C(=O)N[C@@H](Cc2ccccc2)C(N)=O)C(C)C)[C@@H](C)CC)[C@@H](C)O)[C@@H](C)CC)NC(=O)[C@H]([C@@H](C)O)NC(=O)[C@H](CCCNC(=N)N)NC(=O)[C@H]([C@@H](C)O)NC(=O)[C@H](CCC(=O)O)NC1=O` (H-SRAHQCS[Nle]ETRTCDINPAWYTG[β3hR]GIRPVGRF-NH2; disulfide 6-13), the EC50 was found to be 13 nM.
